Entries after “also recorded” stand apart in the source; their conditions may differ.
What was measured:
Type in all cases: physicochemical
[1] = Dynamic vapor sorption (DVS) test with powder X-ray diffraction characterization
Experimental: The test parameters were given as follows: weighing: Ultra Digital Microbalance SMS Ultra Balance™; flow rate: N2, 200 sccm, System Control Software: DVS-Intrinsic control software ver. 1.0.3.1, Data Analysis Software: Isotherm (ISO) analysis suite. 22.4 mg of sample of crystalline form II of dextral oxiracetam was weighed for the test, dried at RH=0%, the mass was balanced to ensure removal of moisture adsorbed on the surface, then placed on metal sample tray, and dried at 0% RH for 2 h. The test was performed at a constant temperature of 25° C., and the relative humidity (RH %) was controlled to vary cyclically from 0% to 90% to 0% RH with a 10% gradient. The variation of the sample weight with humidity was measured, which was combined with powder X-ray diffraction characterization to observe the effect of humidity on crystalline form transformation of the sample.

[2] = Accelerated test for crystalline form stability; details: 40° C.±2° C., relative humidity 75%±5%
Experimental: The accelerated test for crystalline form stability was performed in accordance with the provisions relating to the accelerated test of active pharmaceutical ingredients under “Guidelines for the Stability Test of Active Ingredient Pharmaceutical Ingredients and Pharmaceutical Preparations” of Pharmacopoeia 2010 Appendix XIXC. The crystalline form II of dextral oxiracetam was placed in a beaker and the test was carried out in a constant temperature and humidity chamber at a temperature of 40° C.±2° C. and a relative humidity of 75%±5%.

Solubility in water = test: Solubility in water

NC(=O)CN1C[C@H](O)CC1=O [dextral oxiracetam]
crystalline form of the sample after humidity cycle ([1]; 25° C., relative humidity cycled 0% to 90% to 0% RH with a 10% gradient): still the crystalline form II of dextral oxiracetam
crystal transformation / stability to humidity ([1]; room temperature, relative humidity of 0-95%): do not undergo crystal transformation; also recorded: no crystal transformation occurs
change in crystalline form ([2]; after 2 h): no change
change in crystalline form ([2]; after 10 days): no change
change in crystalline form ([2]; after 15 days): no change
crystal transformation in accelerated stability test ([2]; between 2 h and 15 d): did not undergo crystal transformation
solubility (Solubility in water): ≥ 100 mg/mL
